Details: Liquid, Frequency=8 MHz, Dual path-length method

CC(C)C [2-methylpropane]
Details | speed of sound [m/s]
240 K, 70153 kPa | 1565.7
240 K, 80160 kPa | 1608.6
240 K, 90167 kPa | 1649.3
240 K, 100174 kPa | 1688
259.99 K, 8108.1 kPa | 1108.7
259.99 K, 15113 kPa | 1166
259.99 K, 30123 kPa | 1271.7
260 K, 402.73 kPa | 1036.8
260 K, 405.47 kPa | 1036.7
260 K, 607.87 kPa | 1038.8
260 K, 1106.4 kPa | 1043.8
260 K, 2104 kPa | 1053.6
260 K, 2107.1 kPa | 1053.6
260 K, 3107.8 kPa | 1063.2
260 K, 4108.4 kPa | 1072.7
260 K, 5109.1 kPa | 1081.9
260 K, 6109.7 kPa | 1091
260 K, 7111 kPa | 1099.9
260 K, 8111.7 kPa | 1108.6
260 K, 9112.4 kPa | 1117.2
260 K, 10113 kPa | 1125.7
260 K, 12615 kPa | 1146.2
260 K, 15116 kPa | 1166
260 K, 17618 kPa | 1185
260 K, 20120 kPa | 1203.5
260 K, 25123 kPa | 1238.6
260 K, 30127 kPa | 1271.7
260 K, 35130 kPa | 1303.1
260 K, 40134 kPa | 1333
260 K, 45137 kPa | 1361.5
260 K, 50140 kPa | 1388.9
260 K, 60147 kPa | 1440.6
260 K, 70154 kPa | 1488.7
260 K, 80161 kPa | 1533.9
260 K, 90168 kPa | 1576.6
260 K, 100175 kPa | 1617.2
280 K, 402.43 kPa | 921.86
280 K, 602.22 kPa | 924.25
280 K, 606.25 kPa | 924.3
280 K, 1103.2 kPa | 930.19
280 K, 2103.9 kPa | 941.79
280 K, 3104.4 kPa | 953.08
280 K, 4105.1 kPa | 964.08
280 K, 5105.7 kPa | 974.8
280 K, 6106.3 kPa | 985.26
280 K, 7107 kPa | 995.5
280 K, 8107.9 kPa | 1005.5
280 K, 9108.6 kPa | 1015.3
280 K, 10109 kPa | 1024.9
280 K, 12611 kPa | 1048
280 K, 15113 kPa | 1070.1
280 K, 17614 kPa | 1091.3
280 K, 20116 kPa | 1111.6
280 K, 25119 kPa | 1150.1
280 K, 30123 kPa | 1186.1
280 K, 35126 kPa | 1220
280 K, 40130 kPa | 1252.1
280 K, 45133 kPa | 1282.6
280 K, 50137 kPa | 1311.8
280 K, 60144 kPa | 1366.4
280 K, 70151 kPa | 1417.1
280 K, 80158 kPa | 1464.6
280 K, 90164 kPa | 1509.1
280 K, 100171 kPa | 1551.2
299.99 K, 3104.6 kPa | 844.54
300 K, 601.97 kPa | 809.82
300 K, 1103.1 kPa | 817.03
300 K, 1103.4 kPa | 817.08
300 K, 4105.3 kPa | 857.55
300 K, 5106 kPa | 870.14
300 K, 5106.3 kPa | 870.12
300 K, 6106.5 kPa | 882.34
300 K, 7107.5 kPa | 894.17
300 K, 8108.1 kPa | 905.68
300 K, 9108.7 kPa | 916.91
300 K, 10109 kPa | 927.83
300 K, 12611 kPa | 954.01
300 K, 15113 kPa | 978.78
300 K, 17614 kPa | 1002.3
300 K, 20116 kPa | 1024.8
300 K, 25120 kPa | 1066.9
300 K, 30123 kPa | 1105.9
300 K, 35127 kPa | 1142.4
300 K, 40131 kPa | 1176.7
300 K, 45134 kPa | 1209.2

Reference: the NIST ThermoML archive (doi:10.1021/acs.jced.8b00202)
